Test results: patent US20110237686A1, “FORMULATIONS AND METHODS OF USE” (Cerulean Pharma Inc, priority 2010, published 2011)

Legend:
B16.F10 cells = assay: CellTiter-Glo Luminescent Cell Viability Assay (cytotoxicity of nanoparticles); type: cell-based, mouse; conditions: for IC50: Mus musculus, B16.F10 cells, 24, 48 and 72 hours of incubation tested, time of the IC50 not stated
Experimental: The Cytotoxicity of nanoparticles formed from polymer drug conjugates was evaluated using the following protocol. […] B16.F10 cells, grown to 85-90% confluency in 150 cm^2 flasks (passage<30), were resuspended in media (MEM-alpha, 10% HI-FBS, 1× antibiotic-antimycotic) and added to 96-well opaque-clear bottom plates at a concentration of 1500 cells/well in 200 μL/well. The cells were incubated at 37° C. with 5% CO2 for 24 hours. The following day, serial dilutions of 2×concentrated particles and 2× concentrated free drug were made in 12-well reservoirs with media to specified concentrations. The media in the plates was replaced with 100 μL of fresh media and 100 μL of the corresponding serially diluted drug. Three sets of plates were prepared with duplicate treatments. Following 24, 48 and 72 hours of incubation at 37° C. with 5% CO2, the media in the plates was replaced with 100 μL of fresh media and […] of CTG solution, and then incubated for 5 minutes on a plate shaker at room temperature set to 450 rpm and allowed to rest for 15 minutes. Viable cells were measured by luminescence using a microtiter plate reader. The data was plotted as % viability vs. concentration and standardized to untreated cells.

[1] = Cryoprotectant screen, sucrose lyophilization cycle; type: physicochemical; conditions: PEGylated nanoparticles A; for Dv90 / PDI / Zave: reconstituted
Experimental: A cryoprotectant screen was performed as follows.
These conditions are shown below in Table 21.

[2] = Lyophilization using HP-β-CD, freezing with liquid nitrogen and vacuum at room temperature; type: physicochemical; conditions: PEGylated nanoparticles A, polymer 31.25 mg/mL, vacuum at room temperature;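 also: cyclodextrins or their derivatives tested as cryoprotectant during lyophilization of PEGylated nanoparticles, assessing particle size growth attributed to PEG crystallization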
Experimental: In this example, a new strategy of using cyclodextrins and their derivatives as a cryoprotectant was tested. […] A cryoprotectant is needed to lyophilize liquid formulation that contain PEGylated nanoparticles A (Entries #1 and #2).

[3] = Lyophilization of stealth liposome (Doxil); type: physicochemical; conditions: lipids 16 mg/mL, Sucrose lyophilization cycle, post lyophilization
[4] = Simple lyophilization of PLGA7K-PVA-PEG2K-30 and PLGA7K-PVA-PEG5K-30 PEGylated nanoparticle formulations; type: physicochemical; conditions: 2K PEG PLGA nanoparticles 20 mg/mL, cryoprotectant 20 mg/mL (1:1 w/w)
From the text: The results are similar to that obtained for PEGylated nanoparticles A except for SB-β-CD. The result from SB-β-CD supported the H-bonding mechanism for cryoprotection of PEGylated PLGA nanoparticles since SB-β-CD has less hydroxyl groups than α-CD, γ-CD and HP-β-CD (about ⅓ of —OH groups of β-CD are substituted by sulfobutyl groups).

[5] = Lyophilization using other cyclodextrins; type: physicochemical; conditions: post lyophilization
Experimental: Other CDs were also evaluated at the similar weight ratio of cryoprotectant/nanoparticle.

[6] = polymer 10.42 mg/mL (Doce. 0.50), cryoprotectant 100 mg/mL (9.6:1 w/w)
[7] = polymer 20.83 mg/mL (Doce. 1.00), cryoprotectant 100 mg/mL (4.8:1 w/w)
[8] = polymer 26.05 mg/mL (Doce. 1.25), cryoprotectant 100 mg/mL (3.8:1 w/w)
[9] = polymer 31.25 mg/mL (Doce. 1.5), cryoprotectant 100 mg/mL (3.2:1 w/w)
[10] = cryoprotectant 40 mg/mL (1.28:1 w/w)
[11] = cryoprotectant 100 mg/mL (6.25:1 w/w lipid)
[12] = cryoprotectant 150 mg/mL (12.5:1 w/w lipid)
[13] = cryoprotectant 200 mg/mL (18.5:1 w/w lipid)
[14] = polymer 31.25 mg/mL, cryoprotectant 20 mg/mL (0.64:1 w/w)
[15] = polymer 31.25 mg/mL, cryoprotectant 60 mg/mL (1.92:1 w/w)
[16] = polymer 31.25 mg/mL, cryoprotectant 200 mg/mL (6.4:1 w/w)
[17] = polymer 31.25 mg/mL, cryoprotectant 300 mg/mL (9.6:1 w/w)
[18] = cryoprotectant 15 mg/mL (0.48:1 w/w)
[19] = PEGylated nanoparticles A, polymer 31.25 mg/mL, CD 40 mg/mL (1.28:1 w/w)
[20] = SB-β-CD 40 mg/mL, polymer 28.87 mg/mL (Doce. 1.94), 1.39:1 w/w
[21] = SB-β-CD 60 mg/mL, polymer 28.87 mg/mL (Doce. 1.94), 2.08:1 w/w

COc1cccc2c1C(=O)c1c(O)c3c(c(O)c1C2=O)C[C@@](O)(C(=O)CO)C[C@@H]3O[C@H]1C[C@H](N)[C@H](O)[C@H](C)O1 [Free doxorubicin, doxorubicin]
IC50 (B16.F10 cells): 14 µM

CC(=O)O[C@H]1C(=O)[C@@]2(C)[C@H]([C@H](OC(=O)c3ccccc3)[C@]3(O)C[C@H](OC(=O)[C@H](O)[C@@H](NC(=O)c4ccccc4)c4ccccc4)C(C)=C1C3(C)C)[C@]1(OC(C)=O)CO[C@@H]1C[C@@H]2O [Free paclitaxel, paclitaxel]
IC50 (B16.F10 cells): 7 µM

OC[C@H]1O[C@@](CO)(O[C@H]2O[C@H](CO)[C@@H](O)[C@H](O)[C@H]2O)[C@@H](O)[C@@H]1O [Sucrose, sucrose]
Filtration Loss (0.2 μm PES Filter) [1, 6]: 2%
Lyophilized preparation Appearance [1, 6]: good
Recon. Solution Appearance [1, 6]: good
Dv90 [1, 6]: 120 nm
PDI [1, 6]: 0.081
Zave [1, 6]: 90.62 nm
Filtration Loss (0.2 μm PES Filter) [1, 7]: 2%
Lyophilized preparation Appearance [1, 7]: good
Recon. Solution Appearance [1, 7]: good
Dv90 [1, 7]: 120 nm
PDI [1, 7]: 0.081
Zave [1, 7]: 91.37 nm
Filtration Loss (0.2 μm PES Filter) [1, 8]: 10%
Lyophilized preparation Appearance [1, 8]: good
Recon. Solution Appearance [1, 8]: good
PDI [1, 8]: 0.110
Zave [1, 8]: 92.79 nm
Lyophilized preparation Appearance [1, 9]: good
Recon. Solution Appearance [1, 9]: slight
Filtration Loss (0.2 μm PES Filter) ([1]; polymer 31.25 mg/mL (Doce. 1.50), cryoprotectant 100 mg/mL (3.2:1 w/w)): 15%
PDI [1, 9]: 0.125
Zave [1, 9]: 94.72 nm
Dv90 [2, 10]: 155 nm
PDI [2, 10]: 0.207
Reconstituted Solution appearance [2, 10]: precipitation
Zave [2, 10]: 197.2 nm
Dv90 [3, 11]: 58.5 nm
PDI [3, 11]: 0.390
Zave [3, 11]: 142.4 nm
Dv90 [3, 12]: 533 nm
PDI [3, 12]: 0.484
Zave [3, 12]: 219.3 nm
Dv90 [3, 13]: 1640 nm
PDI [3, 13]: 0.506
Zave [3, 13]: 200.2 nm
outcome after lyophilization (in place of particle size) [4]: Precipitated

OC[C@H]1O[C@H](O[C@H]2O[C@H](CO)[C@@H](O)[C@H](O)[C@H]2O)[C@H](O)[C@@H](O)[C@@H]1O [Trehalose, trehalose]
Lyophilized preparation Appearance [1, 6]: good
Recon. Solution Appearance [1, 6]: slight
Dv90 [1, 6]: 160 nm
PDI [1, 6]: 0.0166
Zave [1, 6]: 108.1 nm
Lyophilized preparation Appearance [1, 7]: good
Recon. Solution Appearance [1, 7]: cloudy
Dv90 [1, 7]: 189 nm
PDI [1, 7]: 0.725
Zave [1, 7]: 606.5 nm
Lyophilized preparation Appearance [1, 8]: good
Recon. Solution Appearance [1, 8]: cloudy
Dv90 [1, 8]: 379 nm
PDI [1, 8]: 0.372
Zave [1, 8]: 259.1 nm
Lyophilized preparation Appearance [1, 9]: good
Recon. Solution Appearance [1, 9]: cloudy
Dv90 [1, 9]: 286 nm
PDI [1, 9]: 0.417
Zave [1, 9]: 294.2 nm
Lyophilized preparation Appearance [1, 14]: good
Recon. Solution Appearance [1, 14]: precipitation
Dv90 [1, 14]: 188 nm
PDI [1, 14]: 0.381
Zave [1, 14]: 236.1 nm
Lyophilized preparation Appearance [1, 15]: good
Recon. Solution Appearance [1, 15]: cloudy
Dv90 [1, 15]: 169 nm
PDI [1, 15]: 0.464
Zave [1, 15]: 276.9 nm
Lyophilized preparation Appearance [1, 16]: good
Recon. Solution Appearance [1, 16]: slight
Dv90 [1, 16]: 186 nm
PDI [1, 16]: 0.348
Zave [1, 16]: 192.2 nm
Lyophilized preparation Appearance [1, 17]: good
Recon. Solution Appearance [1, 17]: slight
Dv90 [1, 17]: 205 nm
PDI [1, 17]: 0.325
Zave [1, 17]: 154.8 nm
Dv90 [2, 10]: 130 nm
PDI [2, 10]: 0.260
Reconstituted Solution appearance [2, 10]: precipitation
Zave [2, 10]: 114.1 nm
outcome after lyophilization (in place of particle size) [4]: Precipitated

OC[C@H]1O[C@@H]2O[C@H]3[C@H](O)[C@@H](O)[C@@H](O[C@H]4[C@H](O)[C@@H](O)[C@@H](O[C@H]5[C@H](O)[C@@H](O)[C@@H](O[C@H]6[C@H](O)[C@@H](O)[C@@H](O[C@H]7[C@H](O)[C@@H](O)[C@@H](O[C@H]1[C@H](O)[C@H]2O)O[C@@H]7CO)O[C@@H]6CO)O[C@@H]5CO)O[C@@H]4CO)O[C@@H]3CO [α-CD, α-cyclodextrin]
Dv90 [2, 18]: 122 nm
Filtration Loss [2, 18]: 8%
PDI [2, 18]: 0.088
Reconstituted Solution appearance [2, 18]: good
Zave [2, 18]: 92.05 nm
Dv90 [4]: 139 nm
PDI [4]: 0.087
Zave [4]: 101.0 nm
Dv90 [5, 19]: 121 nm
PDI [5, 19]: 0.070
Zave [5, 19]: 92.06 nm

OC[C@H]1O[C@@H]2O[C@H]3[C@H](O)[C@@H](O)[C@@H](O[C@H]4[C@H](O)[C@@H](O)[C@@H](O[C@H]5[C@H](O)[C@@H](O)[C@@H](O[C@H]6[C@H](O)[C@@H](O)[C@@H](O[C@H]7[C@H](O)[C@@H](O)[C@@H](O[C@H]8[C@H](O)[C@@H](O)[C@@H](O[C@H]9[C@H](O)[C@@H](O)[C@@H](O[C@H]1[C@H](O)[C@H]2O)O[C@@H]9CO)O[C@@H]8CO)O[C@@H]7CO)O[C@@H]6CO)O[C@@H]5CO)O[C@@H]4CO)O[C@@H]3CO [γ-CD, γ-cyclodextrin]
Dv90 [4]: 139 nm
PDI [4]: 0.080
Zave [4]: 101.8 nm
Dv90 [5, 19]: 121 nm
PDI [5, 19]: 0.097
Zave [5, 19]: 91.06 nm

doxorubicin 5050 PLGA amide
growth of B16.F10 cells (B16.F10 cells; 24, 48 and 72 hours of incubation): inhibited the growth of B16.F10 cells in a dose and time dependent manner

β-cyclodextrin sulfobutylether [SB-β-CD]
outcome after lyophilization (in place of particle size) [4]: Precipitated
Dv90 [5, 20]: 149 nm
Filtration Potency Loss [5, 20]: 2%
Zave [5, 20]: 106.9 nm
Dv90 [5, 21]: 151 nm
Filtration Potency Loss [5, 21]: 8%
Zave [5, 21]: 108.5 nm
